Here are results for three compounds from PMC4854315, “Discovery of a novel allosteric inhibitor-binding site in ERK5: comparison with the canonical kinase hinge ATP-binding site” (Acta Crystallographica. Section D, Structural Biology, 2016).

Common to all, as to experiment: Z'-LYTE kinase panel
Common to all, as to assay type: biochemical

The target in one test is T1, NEK9 (Homo sapiens, UniProt Q8TD19).
T1 construct: purchased ThermoFisher (SelectScreen, Z'-LYTE)
T1 sequence (Q8TD19 1-979): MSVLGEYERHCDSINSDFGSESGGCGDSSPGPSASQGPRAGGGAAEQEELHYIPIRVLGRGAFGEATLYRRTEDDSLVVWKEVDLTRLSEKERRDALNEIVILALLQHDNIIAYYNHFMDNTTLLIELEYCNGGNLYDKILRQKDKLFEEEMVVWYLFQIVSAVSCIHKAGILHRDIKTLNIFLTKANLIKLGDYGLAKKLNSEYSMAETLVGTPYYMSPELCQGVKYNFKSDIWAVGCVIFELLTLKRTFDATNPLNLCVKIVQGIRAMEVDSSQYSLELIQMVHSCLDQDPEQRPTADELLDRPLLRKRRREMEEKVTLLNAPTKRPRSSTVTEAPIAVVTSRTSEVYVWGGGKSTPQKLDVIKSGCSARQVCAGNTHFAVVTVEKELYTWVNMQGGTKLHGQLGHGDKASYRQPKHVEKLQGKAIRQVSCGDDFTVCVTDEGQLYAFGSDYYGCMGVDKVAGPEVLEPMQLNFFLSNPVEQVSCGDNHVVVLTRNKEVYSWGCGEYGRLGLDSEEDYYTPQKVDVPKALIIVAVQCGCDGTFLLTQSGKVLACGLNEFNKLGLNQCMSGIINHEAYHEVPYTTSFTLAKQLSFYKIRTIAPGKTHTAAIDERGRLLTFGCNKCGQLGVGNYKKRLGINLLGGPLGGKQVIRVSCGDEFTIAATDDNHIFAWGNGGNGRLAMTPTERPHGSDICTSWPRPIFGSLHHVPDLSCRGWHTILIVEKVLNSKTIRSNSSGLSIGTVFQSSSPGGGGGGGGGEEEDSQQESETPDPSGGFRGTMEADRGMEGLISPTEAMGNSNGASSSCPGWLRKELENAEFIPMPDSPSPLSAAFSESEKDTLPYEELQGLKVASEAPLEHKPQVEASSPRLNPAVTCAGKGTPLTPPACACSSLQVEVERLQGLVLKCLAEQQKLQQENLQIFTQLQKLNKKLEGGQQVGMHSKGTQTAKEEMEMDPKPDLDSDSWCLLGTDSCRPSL
The method in brief:
(§1)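 Z′-LYTE, standard conditions; 10 µM test compound; values = % inhibition; broad panel of 225 kinases.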

For the next test, the target named is T2, MAPK3 (ERK1) (Homo sapiens, UniProt P27361).
T2 construct: purchased ThermoFisher (SelectScreen, Z'-LYTE)
The method in brief: as §1

A further test deals with T3, PDGFRA (PDGFR alpha) (Homo sapiens, UniProt P16234).
T3 construct: purchased ThermoFisher (SelectScreen, Z'-LYTE)
The method in brief:
as §1

A further test addresses T4, PAK6 (Homo sapiens, UniProt Q9NQU5).
T4 construct: purchased ThermoFisher (SelectScreen, Z'-LYTE)
The method in brief: as §1

The target in the next test is T5, MARK4 (Homo sapiens, UniProt Q96L34).
T5 construct: purchased ThermoFisher (SelectScreen, Z'-LYTE)
T5 sequence (Q96L34 1-752): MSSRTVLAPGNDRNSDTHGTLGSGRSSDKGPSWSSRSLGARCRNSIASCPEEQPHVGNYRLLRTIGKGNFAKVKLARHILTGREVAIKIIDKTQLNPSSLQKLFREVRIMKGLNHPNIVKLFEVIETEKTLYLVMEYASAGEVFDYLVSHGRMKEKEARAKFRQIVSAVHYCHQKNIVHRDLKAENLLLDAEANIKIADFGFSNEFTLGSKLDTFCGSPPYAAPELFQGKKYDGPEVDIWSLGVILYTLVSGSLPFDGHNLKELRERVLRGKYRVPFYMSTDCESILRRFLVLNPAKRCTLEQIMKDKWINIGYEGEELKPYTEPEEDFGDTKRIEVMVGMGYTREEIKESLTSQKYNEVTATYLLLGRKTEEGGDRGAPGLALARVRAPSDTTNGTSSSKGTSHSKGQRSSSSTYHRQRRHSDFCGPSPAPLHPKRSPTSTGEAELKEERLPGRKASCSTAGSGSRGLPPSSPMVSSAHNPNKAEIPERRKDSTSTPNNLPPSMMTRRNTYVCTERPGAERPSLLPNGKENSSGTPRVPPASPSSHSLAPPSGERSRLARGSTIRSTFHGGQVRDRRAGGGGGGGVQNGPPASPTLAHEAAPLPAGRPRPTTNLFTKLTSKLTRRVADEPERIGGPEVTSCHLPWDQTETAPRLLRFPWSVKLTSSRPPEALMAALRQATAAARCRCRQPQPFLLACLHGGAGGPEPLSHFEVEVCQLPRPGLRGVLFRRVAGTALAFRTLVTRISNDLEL
The method in brief:
as §1

The target in a further test is T6, PRKACA (PKA) (Homo sapiens, UniProt P17612).
T6 construct: purchased ThermoFisher (SelectScreen, Z'-LYTE)
The method in brief:
as §1

Another test addresses T7, PTK2 (FAK) (Homo sapiens, UniProt Q05397).
T7 construct: purchased ThermoFisher (SelectScreen, Z'-LYTE)
The method in brief: as §1

Another test deals with T8, CDK5/p35 (Homo sapiens, UniProt Q00535).
T8 construct: purchased ThermoFisher (SelectScreen, Z'-LYTE)
The method in brief:
as §1

For the next test, the target named is T9, PIM1 (Homo sapiens, UniProt P11309).
T9 construct: purchased ThermoFisher (SelectScreen, Z'-LYTE)
The method in brief: as §1

Another test concerns the target T10, SRC (Homo sapiens, UniProt P12931).
T10 construct: purchased ThermoFisher (SelectScreen, Z'-LYTE)
The method in brief: as §1

The target in a further test is T11, NTRK3 (TRKC) (Homo sapiens, UniProt Q16288).
T11 construct: purchased ThermoFisher (SelectScreen, Z'-LYTE)
The method in brief:
as §1

Another test has as its target T12, KIT (Homo sapiens, UniProt P10721).
T12 construct: purchased ThermoFisher (SelectScreen, Z'-LYTE)
The method in brief: as §1

A further test addresses T13, MST4 (Homo sapiens, UniProt Q9P289).
T13 construct: purchased ThermoFisher (SelectScreen, Z'-LYTE)
The method in brief:
as §1

T13 sequence (Q9P289 whole entry): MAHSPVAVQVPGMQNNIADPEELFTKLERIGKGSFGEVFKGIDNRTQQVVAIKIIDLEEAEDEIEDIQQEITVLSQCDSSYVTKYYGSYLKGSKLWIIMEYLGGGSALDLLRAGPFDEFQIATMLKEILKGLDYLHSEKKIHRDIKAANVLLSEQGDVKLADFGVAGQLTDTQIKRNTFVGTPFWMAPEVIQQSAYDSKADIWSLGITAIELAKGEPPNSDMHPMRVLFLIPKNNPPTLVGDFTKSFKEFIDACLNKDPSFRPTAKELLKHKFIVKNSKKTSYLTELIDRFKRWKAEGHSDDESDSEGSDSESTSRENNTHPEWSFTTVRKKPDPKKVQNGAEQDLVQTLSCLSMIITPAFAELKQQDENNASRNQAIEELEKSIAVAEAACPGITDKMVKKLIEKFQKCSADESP
T12 sequence (P10721 26-976): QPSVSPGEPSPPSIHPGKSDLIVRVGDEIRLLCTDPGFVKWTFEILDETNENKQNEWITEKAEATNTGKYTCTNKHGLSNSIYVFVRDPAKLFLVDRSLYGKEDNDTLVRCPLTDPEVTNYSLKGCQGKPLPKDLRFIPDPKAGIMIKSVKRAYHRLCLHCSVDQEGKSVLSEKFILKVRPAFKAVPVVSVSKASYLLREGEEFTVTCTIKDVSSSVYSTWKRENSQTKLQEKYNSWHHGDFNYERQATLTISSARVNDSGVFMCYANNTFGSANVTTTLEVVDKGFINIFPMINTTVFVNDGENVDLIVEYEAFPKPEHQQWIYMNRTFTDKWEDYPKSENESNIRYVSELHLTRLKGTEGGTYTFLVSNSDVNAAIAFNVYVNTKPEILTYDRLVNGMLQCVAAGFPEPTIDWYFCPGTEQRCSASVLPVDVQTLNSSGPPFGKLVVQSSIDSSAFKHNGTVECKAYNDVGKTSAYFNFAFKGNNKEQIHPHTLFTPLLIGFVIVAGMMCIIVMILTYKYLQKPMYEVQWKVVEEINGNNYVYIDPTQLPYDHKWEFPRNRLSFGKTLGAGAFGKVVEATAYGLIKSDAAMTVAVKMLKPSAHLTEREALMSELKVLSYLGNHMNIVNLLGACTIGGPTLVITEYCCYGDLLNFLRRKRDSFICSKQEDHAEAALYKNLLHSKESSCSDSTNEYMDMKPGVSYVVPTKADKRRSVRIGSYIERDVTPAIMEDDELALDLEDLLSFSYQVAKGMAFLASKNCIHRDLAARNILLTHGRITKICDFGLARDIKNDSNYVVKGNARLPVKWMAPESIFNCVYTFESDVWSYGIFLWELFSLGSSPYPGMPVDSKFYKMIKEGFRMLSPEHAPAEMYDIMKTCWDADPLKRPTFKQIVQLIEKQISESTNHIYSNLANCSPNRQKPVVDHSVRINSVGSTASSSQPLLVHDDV
T7 sequence (Q05397 whole entry): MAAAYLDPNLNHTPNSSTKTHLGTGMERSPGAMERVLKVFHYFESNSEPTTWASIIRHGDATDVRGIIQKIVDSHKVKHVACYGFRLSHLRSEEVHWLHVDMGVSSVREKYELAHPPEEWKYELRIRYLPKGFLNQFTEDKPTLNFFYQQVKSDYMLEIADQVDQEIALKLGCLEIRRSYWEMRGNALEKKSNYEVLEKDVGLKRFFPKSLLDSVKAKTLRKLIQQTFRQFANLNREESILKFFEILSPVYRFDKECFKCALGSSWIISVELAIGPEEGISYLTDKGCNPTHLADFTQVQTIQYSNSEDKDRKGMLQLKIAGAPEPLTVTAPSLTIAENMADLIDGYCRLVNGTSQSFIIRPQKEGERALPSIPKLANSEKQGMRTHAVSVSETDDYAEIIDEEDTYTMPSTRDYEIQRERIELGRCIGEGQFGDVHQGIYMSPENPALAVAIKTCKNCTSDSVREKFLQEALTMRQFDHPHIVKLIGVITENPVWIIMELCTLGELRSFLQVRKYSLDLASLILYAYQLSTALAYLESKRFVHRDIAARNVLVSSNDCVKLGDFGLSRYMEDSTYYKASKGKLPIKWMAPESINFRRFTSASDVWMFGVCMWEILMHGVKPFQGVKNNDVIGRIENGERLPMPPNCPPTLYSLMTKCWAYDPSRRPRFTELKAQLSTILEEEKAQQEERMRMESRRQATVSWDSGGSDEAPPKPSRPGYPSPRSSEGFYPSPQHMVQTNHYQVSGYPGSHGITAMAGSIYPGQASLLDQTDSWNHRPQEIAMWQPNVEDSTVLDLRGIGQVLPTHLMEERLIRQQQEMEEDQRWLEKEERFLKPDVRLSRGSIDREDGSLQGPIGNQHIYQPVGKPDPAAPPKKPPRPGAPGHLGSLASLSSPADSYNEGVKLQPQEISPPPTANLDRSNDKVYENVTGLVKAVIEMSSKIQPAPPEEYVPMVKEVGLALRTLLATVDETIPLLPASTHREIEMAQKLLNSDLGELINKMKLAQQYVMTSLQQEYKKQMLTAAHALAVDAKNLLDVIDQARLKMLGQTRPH
T8 sequence (Q00535 whole entry): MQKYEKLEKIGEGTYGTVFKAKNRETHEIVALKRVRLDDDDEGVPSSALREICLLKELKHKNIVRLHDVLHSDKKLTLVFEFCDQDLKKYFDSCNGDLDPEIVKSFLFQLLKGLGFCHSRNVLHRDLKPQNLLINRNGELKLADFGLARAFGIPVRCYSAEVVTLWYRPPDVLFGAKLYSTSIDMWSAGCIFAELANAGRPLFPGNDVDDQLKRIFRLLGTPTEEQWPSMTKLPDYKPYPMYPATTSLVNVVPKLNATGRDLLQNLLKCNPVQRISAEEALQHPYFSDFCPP
T8 sequence (Q15078 whole entry partner): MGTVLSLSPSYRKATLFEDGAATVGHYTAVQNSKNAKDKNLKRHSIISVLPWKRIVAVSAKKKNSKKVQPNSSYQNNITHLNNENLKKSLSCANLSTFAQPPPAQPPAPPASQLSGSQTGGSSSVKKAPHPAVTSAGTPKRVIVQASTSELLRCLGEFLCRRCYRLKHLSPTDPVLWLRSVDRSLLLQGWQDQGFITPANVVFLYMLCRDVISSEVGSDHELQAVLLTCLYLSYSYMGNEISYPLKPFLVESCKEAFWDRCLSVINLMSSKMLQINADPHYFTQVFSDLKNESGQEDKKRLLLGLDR
T9 sequence (P11309 whole entry): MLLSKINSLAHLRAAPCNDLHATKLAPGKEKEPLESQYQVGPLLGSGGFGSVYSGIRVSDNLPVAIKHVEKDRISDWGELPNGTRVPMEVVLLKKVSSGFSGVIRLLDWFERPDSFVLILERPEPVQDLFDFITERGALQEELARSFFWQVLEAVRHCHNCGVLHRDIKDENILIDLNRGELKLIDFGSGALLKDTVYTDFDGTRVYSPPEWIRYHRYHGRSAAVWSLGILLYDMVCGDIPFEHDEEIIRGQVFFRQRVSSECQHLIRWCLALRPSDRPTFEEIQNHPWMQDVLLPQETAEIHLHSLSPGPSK
T3 sequence (P16234 24-1089): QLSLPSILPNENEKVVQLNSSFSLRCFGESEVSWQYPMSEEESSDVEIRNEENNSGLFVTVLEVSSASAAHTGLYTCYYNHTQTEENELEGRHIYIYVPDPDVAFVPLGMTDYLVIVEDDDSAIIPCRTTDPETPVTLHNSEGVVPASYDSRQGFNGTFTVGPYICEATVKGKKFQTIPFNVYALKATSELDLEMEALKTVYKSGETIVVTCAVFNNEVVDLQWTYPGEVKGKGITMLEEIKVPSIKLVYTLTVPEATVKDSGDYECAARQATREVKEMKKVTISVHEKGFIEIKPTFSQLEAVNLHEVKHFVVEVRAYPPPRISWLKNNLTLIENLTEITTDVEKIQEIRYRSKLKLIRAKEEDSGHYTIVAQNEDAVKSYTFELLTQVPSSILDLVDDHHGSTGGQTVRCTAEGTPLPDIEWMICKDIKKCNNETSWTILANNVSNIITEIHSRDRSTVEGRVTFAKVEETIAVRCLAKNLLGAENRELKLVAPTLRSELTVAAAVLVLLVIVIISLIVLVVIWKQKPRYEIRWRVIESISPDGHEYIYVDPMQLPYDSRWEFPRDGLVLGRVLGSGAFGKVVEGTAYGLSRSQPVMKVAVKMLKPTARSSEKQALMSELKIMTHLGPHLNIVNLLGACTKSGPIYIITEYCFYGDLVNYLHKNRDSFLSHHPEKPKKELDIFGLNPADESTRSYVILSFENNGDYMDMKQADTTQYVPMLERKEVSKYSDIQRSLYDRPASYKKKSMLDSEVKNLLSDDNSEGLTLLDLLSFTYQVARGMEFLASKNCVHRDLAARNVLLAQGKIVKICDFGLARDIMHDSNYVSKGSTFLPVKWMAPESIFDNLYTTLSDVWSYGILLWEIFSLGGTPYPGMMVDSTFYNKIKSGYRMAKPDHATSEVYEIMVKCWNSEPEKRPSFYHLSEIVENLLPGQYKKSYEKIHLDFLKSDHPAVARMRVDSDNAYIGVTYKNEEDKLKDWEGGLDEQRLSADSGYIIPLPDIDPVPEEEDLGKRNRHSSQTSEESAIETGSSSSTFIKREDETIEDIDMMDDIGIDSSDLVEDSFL
T2 sequence (P27361 whole entry): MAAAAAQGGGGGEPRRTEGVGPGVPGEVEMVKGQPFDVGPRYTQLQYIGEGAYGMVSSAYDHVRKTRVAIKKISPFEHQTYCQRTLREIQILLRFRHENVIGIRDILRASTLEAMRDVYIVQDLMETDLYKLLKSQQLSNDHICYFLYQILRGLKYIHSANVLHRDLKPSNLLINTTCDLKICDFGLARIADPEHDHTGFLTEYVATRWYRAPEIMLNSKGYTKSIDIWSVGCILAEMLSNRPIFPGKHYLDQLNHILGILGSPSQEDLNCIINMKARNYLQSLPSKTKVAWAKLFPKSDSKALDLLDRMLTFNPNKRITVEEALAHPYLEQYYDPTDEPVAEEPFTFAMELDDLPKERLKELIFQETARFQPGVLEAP

Broadly, the inhibition is the change of the read-out against control, counted positive when it falls. `Cc1ncc(-c2nc(Nc3ccc(C(=O)NCCN4CCCCC4)cc3)ncc2F)n1C(C)C` [Compound 3]: the inhibition at 10 µM at NEK9 was found to be 18%; at MAPK3 (ERK1) it was 40%; at PDGFRA (PDGFR alpha), 62%; at PAK6, 27%; at MARK4 it was 62%; against PRKACA (PKA) it was 74%. The inhibition at 10 µM against PTK2 (FAK) stood at 94%; on CDK5/p35, 106%; on PIM1, 65%; at SRC it was 79%; against NTRK3 (TRKC), 79%; against KIT it was 31%. Also, the inhibition at 10 µM against MST4 worked out at 75%.
With `Cc1cc(Nc2nc(N)nn2C(=O)NC(C)C)ccc1Cl` [Compound 5], the inhibition at 10 µM was determined as 1.46% against NEK9; 7% against MAPK3 (ERK1); 22% at PDGFRA (PDGFR alpha); 14% against PAK6; 2.34% on MARK4; 1.5% against PRKACA (PKA). Moreover, the inhibition at 10 µM against PTK2 (FAK) is 10%; against CDK5/p35, 71%; at PIM1, -1.79%; on SRC it was 26%; against NTRK3 (TRKC), 52%; against KIT it was 11%. Also, the inhibition at 10 µM against MST4 stood at 43%.
As to “XMD8-92 [Compound 2, reference compound]”, the “NEK9 % Inhibition” value at NEK9 (10 µM compound, ATP Km app) is on record as -0.532%. For the same compound, at MAPK3 (ERK1) (10 µM compound, ATP Km app), the “MAPK3 (ERK1) % Inhibition” value stood at 8%. Besides, the “PDGFRA (PDGFR alpha) % Inhibition” value at PDGFRA (PDGFR alpha) (10 µM compound, ATP Km app) is recorded as 8%. Also, the “PAK6 % Inhibition” value on PAK6 (10 µM compound, ATP Km app) was 33%. At MARK4 (10 µM compound, ATP Km app), the “MARK4 % Inhibition” value is 37%. Besides, the “PRKACA (PKA) % Inhibition” value on PRKACA (PKA) (10 µM compound, ATP Km app) came to 56%. For the same compound, the “PTK2 (FAK) % Inhibition” value on PTK2 (FAK) (10 µM compound, ATP Km app) stood at 47%. In addition, the “CDK5/p35 % Inhibition” value at CDK5/p35 (10 µM compound, ATP Km app) came out at 77%. For the same compound, the “PIM1 % Inhibition” value on PIM1 (10 µM compound, ATP Km app) was determined as 35%. In addition, the “SRC % Inhibition” value on SRC (10 µM compound, ATP Km app) was determined as 11%. Besides, on NTRK3 (TRKC) (10 µM compound, ATP Km app), the “NTRK3 (TRKC) % Inhibition” value amounted to 64%. The “KIT % Inhibition” value at KIT (10 µM compound, ATP Km app) was -5.51%. The “MST4 % Inhibition” value on MST4 (10 µM compound, ATP Km app) is listed as 15%.
